Assay results published in US6261767A, “Method for the qualitative and quantitative detection of DNA damage” (Societe Francaise de Recherches et d'Investissements (SFRI), priority 1995, dated 2001).
Starred links: 1 amine or outer side, 2 acyl side, 3 side chain; linkers in the order of their positions; H or OH if unused. Positions of bridges follow the written chain, without caps; N, C: chain ends. Non-standard residues stand in square brackets, D forms with d. Residues, ends and D or L forms follow the SMILES beside them. Chains are numbered I, II in the order given. Actinocin(9to1) = Cc1c2oc3c(C)ccc(C(=O)[*:1])c3nc-2c(C(=O)[*:2])c(N)c1=O; NMeV = CN[C@H](C(=O)O)C(C)C; Sar = CNCC(=O)O

Legend:
[1] = system: DNA (plasmid 2959 bp)
[2] = system: repair activity of extracts from HeLa cells; test: modulation (inhibition) of the repair activity of cellular extracts from HeLa cells on damaged DNA; assay type: biochemical; conditions: FIG. 9
From the text: The invention also provides a process for measuring the effect of modulation and the inhibitive effect of the repair of at least one molecule, which comprises the following steps:
preparation of damaged DNA fixed on a sensitized support,
action of a composition comprising at least one cellular extract having a repair activity on this DNA, said extract containing markers, and conjointly the action of at least one molecule having the power of modulating the repair action,
direct or indirect revelation of the markers that may be incorporated in the DNA, in the case of repair, and
comparative reading relative to a control specimen.
d/ Repair in the presence of a cellular extract and of agents of known type, comprising for example for a volume of reaction medium (RM) of 50 μl:
In the course of the repair step, see FIG. 1D, the molecules for which it is sought to show a modulator effect of the repair can be added. These molecules are preferably diluted in water or in dimethylsulfoxide (DMSO).

[3] = system: DNA damage generated by methylene blue; test: antioxidant relative activity (R.A.) against DNA damage by photo-activated methylene blue; assay type: biochemical; conditions: summary of the R.A. table
Experimental: b/ Methylene blue is known to liberate by photo-activation, one atom of oxygen. For the tests to follow, methylene blue was subjected to radiation with visible light for 20 minutes with two bulb lamps of 100 W, a distance between the lamps and the support plates of 30 cm and a concentration of methylene blue of 50 ng/ml. The step of repair of the damage is carried out according to the information indicated above, with the use of the same reaction medium RM. In the same fashion, the plates, after the action of the reaction medium RM are washed three times with the washing solution indicated above, and incubated 15 minutes with a chemiluminescent substrate ("Lumi-Phos 530"). […] For the second test, with methylene blue, the relative activity RA has been calculated of an antioxidant which is equal to: [formula] in which formula: control RLU corresponds to the value of the signal of methylene blue alone subjected to radiation, test RLU corresponds to the value of the signal of methylene blue subjected to […] radiation plus an antioxidant molecule, and reference RLU corresponds to the value of the signal of the antioxidant molecule alone.

[4] = system: DNA damage generated by hydrogen peroxide; test: inhibition of / antioxidant relative activity (R.A.) against DNA damage by hydrogen peroxide; assay type: biochemical; conditions: 10 μm metallic chelating agent

COS(C)(=O)=O [MMS, methylmethanesulfonate]
effectiveness of damage as shown by the repair ratio (before vs after adsorption of DNA) ([1]; MMS in contact with DNA before the adsorption step, FIG. 7): greater effectiveness of damage

CCn1cc(C(=O)O)c(=O)c2ccc(C)nc21 [nalidixic acid]
inhibitor effect on the repair activity [2]: without effect

OO [hydrogen peroxide]
quantity for which the maximum ratio of repair is obtained [1]: 0.27 mM

Vitamin A
antioxidant activity (in words) [3]: no antioxidizing effect

COc1cccc2c1C(=O)c1c(O)c3c(c(O)c1C2=O)C[C@@](O)(C(=O)CO)C[C@@H]3O[C@H]1C[C@H](N)[C@H](O)[C@H](C)O1 [doxorubicine]
inhibitor effect on the repair activity [2]: dose- dependent inhibitor effect

CC(=O)N(O)CCCCCNC(=O)CCC(=O)N(O)CCCCCNC(=O)CCC(=O)N(O)CCCCCN [mesylate deferroxamine]
inhibition of the effects of hydrogen peroxide (production of DNA damage) [4]: inhibits totally

Cc1c2oc3c(C)ccc(C(=O)N[C@@H]4C(=O)N[C@H](C(C)C)C(=O)N5CCC[C@H]5C(=O)N(C)CC(=O)N(C)[C@@H](C(C)C)C(=O)O[C@@H]4C)c3nc-2c(C(=O)N[C@@H]2C(=O)N[C@H](C(C)C)C(=O)N3CCC[C@H]3C(=O)N(C)CC(=O)N(C)[C@@H](C(C)C)C(=O)O[C@@H]2C)c(N)c1=O [actinomycin D] (I: T[dV]P[Sar][NMeV] / II: T[dV]P[Sar][NMeV]; ester I:1-I:C, II:1-II:C; linker I:N-II:N via Actinocin(9to1))
inhibitor effect on the repair activity [2]: dose- dependent inhibitor effect
